Reference: patent US20020128268A1, “Use of 2-hydrazino-1,3-thiazoles as antioxidants” (priority 2000, published 2002)

Legend:
[1] = DPPH (1,1-diphenyl-2-picryl-hydrazyl) test for eliminating free radicals; format: biochemical; settings: effective relative concentration c(test compound)/c(DPPH) at which the DPPH free radical was 50% eliminated; methanol, absorption at 515 nm
Protocol: The activity of the exemplary compounds as free radical-capturing agents was compared with that of conventional free radical-capturing agents. In this connection, use was made of the DPPH (1,1-diphenyl-2-picryl-hydrazyl) test for eliminating free radicals.
DPPH was dissolved in methanol to give a concentration of 100 μmol/l. A series of dilutions of the exemplary compounds, Vitamin C, α-tocopherol and dibutylhydroxytoluene were prepared in methanol. Methanol served as the control. 2500 μl of the DPPH solution were mixed with 500 μl of each test solution and the decrease in the absorption at 515 nm was read until the decrease was less than 2% per hour. The activity of the test substances as free radical-capturing agents was calculated using the following equation:
Activity as free radical-capturing agent (%)=100—(absorption of the test compounds)/(absorption of the control)×100.
For each test compound, the effective relative concentration EC50 (based on the concentration of DPPH which was initially present, EC=c (test compound)/c(DPPH)) of a test compound, i.e. at which the DPPH free radical was 50% eliminated, was calculated from the activity as a free radical-capturing agent (%) in a series of dilutions of test compounds.

[2] = Rancimat accelerated autooxidation of lipids by air, soyabean oil; settings: antioxidative index = IP(with test solution)/IP(control sample)
Protocol: (§1) The activity of the exemplary compounds as antioxidants was compared with that of conventional antioxidants. The accelerated autooxidation of lipids by air with or without antioxidant, as measured using the Rancimat appliance (Rancimat is a registered trademark belonging to Metrohm AG, Herisau, Switzerland) was used as the test system. The exemplary compounds, Vitamin C, α-tocopherol and dibutyihydroxytoluene were dissolved in methanol or acetone, and 100 μl of the respective test solution were added to a previously prepared oil sample weighing 3 g. Solvent only was added to a control sample. A constant, dry stream of air (20 I/h) was blown through the heated oil sample containing the test solution, and the volatile oxidation products (principally short-chain fatty acids such as formic and acetic acid) were collected in a recipient vessel containing water. The conductivity of this aqueous solution was measured and documented continuously. In this connection, the oxidation of (unsaturated) fats proceeds only very slowly for a while and then suddenly increases rapidly. The time which elapses until the increase is termed the induction period (IP). The antioxidative index (AOI) was obtained using the following equation: AOI=IP(with test solution)/IP(control sample). The results for the experiments in soyabean oil at 100° C. and, at 80° C., in squalene, which was purified on alumina type N and stabilized with 1 ppm α-tocopherol, are shown in Table 6: […]

[3] = Rancimat accelerated autooxidation of lipids by air, squalene; settings: antioxidative index = IP(with test solution)/IP(control sample), squalene purified on alumina type N and stabilized with 1 ppm α-tocopherol
Protocol: as §1

SMILES | EC50/ (mol/mol) [1] | AOl in Soyabean oil at 100° C. containing 0.05% test substance [2] | AOl in squalene at 80° C. containing 0.005% test substance [3]
NNc1nc2cc(S(=O)(=O)O)ccc2s1 [2-Hydrazino-1,3-benzothiazole-5-sulfonic acid] | 0.17 mol/mol | – | –
NNc1nc2ccccc2s1 [2-Hydrazino-1,3-benzothiazole] | 0.15 mol/mol | 17 | 97
NNc1nc(-c2ccccc2)cs1 [2-Hydrazino-4-phenyl-1,3-thiazole] | 0.13 mol/mol | 8.5 | 13
NNc1nnc(-c2ccc(F)cc2)s1 [2-Hydrazino-5-(4-fluorophenyl)-1,3,4-thiadiazole] | 0.14 mol/mol | 15 | 38
NNc1nc2cccnc2s1 [2-Hydrazino-thiazolo-[5,4-b]pyridine] | 0.10 mol/mol | – | 60
COc1cc2nc(NN)sc2cc1OC [5,6-Dimethoxy-2-hydrazino-1,3-benzothiazole] | 0.12 mol/mol | 4.1 | 24
COc1ccc2nc(NN)sc2c1 [6-Methoxy-2-hydrazino-1,3-benzothiazole] | – | 24 | 23
Cc1ccc2nc(NN)sc2c1 [6-Methyl-2-hydrazino-1,3-benzothiazole] | 0.28 mol/mol | 2.4 | 67
CC(C)(C)c1ccc2nc(NN)sc2c1 [6-tert.-Butyl-2-hydrazino-1,3-benzothiazole] | 0.15 mol/mol | 6 | 14
Cc1cc(C(C)(C)C)c(O)c(C(C)(C)C)c1 [Dibutylhydroxytoluene, reference compound] | 0.24 mol/mol | 4.8 | 38
O=C1O[C@H]([C@@H](O)CO)C(O)=C1O [Vitamin C, reference compound] | 0.27 mol/mol | 1.2 | 0.7
Cc1c(C)c2c(c(C)c1O)CC[C@@](C)(CCC[C@H](C)CCC[C@H](C)CCCC(C)C)O2 [α-Tocopherol, reference compound] | 0.25 mol/mol | 5.1 | 39
